Data as given in patent US7084172B2, “Bioprecursors for percutaneous application” (Pierre Fabre Dermo-Cosmetique, priority 2001, dated 2006).

Tested on: HaCaT keratinocyte line
Assay: Enzymatic hydrolysis by esterase activity in HaCaT keratinocytes
Format: in vitro ADME, human
Description: 150 μl of a 1 mM solution in dimethyl sulphoxide (DMSO) are placed in a dish containing an HaCaT keratinocyte line (75 cm^2) in 15 ml of serum alone. The cells are placed in the incubator at 37° C. for 24 hours. The medium is extracted with 15 ml of ethyl acetate. The organic phase is then isolated and evaporated off.
The cells are extracted by sonication into 2×15 ml of an ice-cold mixture consisting of chloroform and methanol (1:2.5). After centrifugation, the organic phase collected is evaporated to dryness. For each test, a control is performed on a dish containing cells and a substrate-free medium to take account of a possible chemical degradation of the substrate.
The presence of esterase activity in the human keratinocytes is checked by means of a substrate, 4-methylumbelliferyl palmitate. The precursor according to the invention, used as pseudosubstrate, is the tocopheryl retinyl succinate prepared according to example 1.

Degree of hydrolysis in 24 hours of incubation (150 μl of 1 mM DMSO solution in 15 ml serum, HaCaT keratinocytes, 37° C., 24 hours) | Degree of hydrolysis in 24 hours of incubation (human, 24 h, 10 µM) | Compound
2.7% ± 2% | – | CCCCCCCCCCCCCCCC(=O)Oc1ccc2c(C)cc(=O)oc2c1 [4-Methylumbelliferyl palmitate, 4-methylumbelliferyl palmitate]
– | 5% ± 3% | CC1=C(/C=C/C(C)=C/C=C/C(C)=C/COC(=O)CCC(=O)Oc2c(C)c(C)c3c(c2C)CCC(C)(CCCC(C)CCCC(C)CC(C)C)O3)C(C)(C)CCC1 (centres unmarked) [Tocopheryl retinyl succinate, O-(4-Oxo-4-{[2,5,7,8-tetramethyl-2-(4,8,12-trimethyltridecyl)-3,4-dihydro-2H-chromen-6-yl]oxy}butanoyl)retinol]
